Data set [1] can be described thus: Ratio of polynucleotide/mRNA to lipid (wt/wt). In kind it is physicochemical. The protocol:
The nucleic acid lipid particle dispersion was mixed with acetonitrile and chloroform at a ratio of 1:1:1 and centrifuged at 15,000 rpm for 2 minutes. Then, the aqueous layer obtained as an upper layer was recovered, followed by the extraction of the double-stranded polynucleotide. The amount of the double-stranded polynucleotide in the sample was measured by ion-exchange chromatography (system: Agilent 1100 series, column: TSKgel DEAE-2SW (2.6×150 mm) (Tosoh Corp), buffer A: 20% acetonitrile, buffer B: 20% acetonitrile and 1.6 M ammonium formate, gradient (B %): 30-55% (0-20 min), flow rate: 1 mL/min, temperature: 40° C., detection: 260 nm).
The amount of the phospholipid in the nucleic acid lipid particle dispersion was measured using Phospholipid C-Test Wako (Wako Pure Chemical Industries Ltd.) according to the attached document. Specifically, the phospholipid in the sample was quantified in the presence of a 1% Triton X-100 detergent.
The amounts of cholesterol and LP in the nucleic acid lipid particle dispersion were measured by reverse-phase chromatography (system: Agilent 1100 series, column: Chromolith Performance RP-18 endcapped 100-3 monolithic HPLC-column (Merck), buffer A: 0.01% trifluoroacetic acid, buffer B: 0.01% trifluoroacetic acid and methanol, gradient (B %): 87-92% (0-10 min), flow rate: 2 mL/min, temperature: 50° C., detection: 205 nm).
The total amount of lipids was calculated from the amount of the phospholipid and the compositional ratio of lipid components constituting the liposome, and the ratio of the polynucleotide to the lipid was calculated from the aforementioned amount of the polynucleotide and the total amount of lipids according to the following expression: [Double-stranded polynucleotide concentration]/[Total lipid concentration] (wt/wt)
The total amount of lipids was calculated from the amount of the phospholipid, the amount of cholesterol, and the amount of LP, and the compositional ratio of lipid components constituting the liposome, and the ratio of the polynucleotide to the lipid was calculated from the aforementioned amount of the polynucleotide and the total amount of lipids according to the following expression: [Double-stranded polynucleotide concentration]/[Total lipid concentration] (wt/wt)
The amount of the double-stranded polynucleotide in a sample from the nucleic acid lipid particle dispersion was measured in the presence of a 5% Triton X-100 detergent by ion-exchange chromatography (system: Agilent 1100 series, column: DNAPac PA200 (4×250 mm) (Thermo Fisher Scientific K.K.), buffer A: 10 mM Tris, 25 mM sodium perchlorate, and 20% ethanol, pH 7.0, buffer B: 10 mM Tris, 250 mM sodium perchlorate, and 20% ethanol, pH 7.0, gradient (B %): 20-70% (0-15 min), flow rate: 0.5 mL/min, temperature: 40° C., detection: 260 nm).
The amounts of cholesterol and LP in the nucleic acid lipid particle dispersion were measured by reverse-phase chromatography (system: Agilent 1100 series, column: Chromolith Performance RP-18 endcapped 100-3 monolithic HPLC-column (Merck), buffer A: 0.01% trifluoroacetic acid, buffer B: 0.01% trifluoroacetic acid and methanol, gradient (B %): 82-92% (0-10 min), flow rate: 2 mL/min, temperature: 50° C., detection: 205 nm).
The total amount of lipids was calculated from the amount of the phospholipid, the amount of cholesterol, and the amount of LP, and the compositional ratio of lipid components constituting the liposome, and the ratio of the mRNA to the lipid was calculated from the “amount of the mRNA in the presence of the detergent” of the preceding paragraph (2) according to the following expression: [mRNA concentration in the presence of the detergent]/[Total lipid concentration] (wt/wt)

The nature of data set [2]: Average particle size of nucleic acid lipid particle (NICOMP 380ZLS). Type of data set: physicochemical. On the procedure:
The particle size of the liposome was measured using Zeta Potential/Particle Sizer NICOMP™ 380ZLS (Particle Sizing Systems, LLC). In the tables, the average particle size is indicated by a volume-average particle size, and the numeric value following ±represents a deviation.

The subject of data set [3] is human β-catenin gene. Nature of the data set: Test Example 1: β-catenin gene expression inhibition in SW480 cells, 3 days, real-time PCR. In kind it is cell-based. The conditions noted are these: for inhibitory activity against β-catenin gene expression (in words): compared with particle containing lipid of Reference Example 2; for IC50: nucleic acid lipid particle of Example 31 containing the named lipid, double-stranded polynucleotide concentration, read-out: β-catenin gene expression inhibitory activity IC50. On the procedure: (§1) As described below, the strength of human β-catenin gene expression inhibitory activity was compared among nucleic acid lipid particles each prepared using a novel lipid.
(§2) The concentration of a human colorectal cancer SW480 cell line (derived from human colorectal adenocarcinoma) was adjusted to 50,000 cells/mL in an RPMI1640 medium (manufactured by Invitrogen Corp.) containing 10% fetal bovine serum (culture medium). Then, the resulting culture solution was inoculated at 100 μL/well to a 96-well flat-bottomed plate (manufactured by Corning Inc./Falcon) and cultured at 37° C. for 1 day under 5.0% CO2. The nucleic acid lipid particle dispersion prepared in Example 31 was diluted with a culture medium to prepare dilution series having final double-stranded polynucleotide concentrations of 30, 3.0, 0.3, and 0.03 nM in the medium. Then, each dilution was added to the cells after removal of the culture supernatant, and the culture was further continued for 3 days. This operation was performed at N=3 for each concentration.
(§3) A lysate and cDNA for real-time PCR measurement were prepared from the transfected cells using TaqMan® Fast-Cells-to-Ct kit (Life Technologies, Inc./Ambion) according to the instruction manual. In the lysate preparation, Lysis Solution supplemented with DNase I was used. The probes for real-time PCR used were TaqMan® Gene Expression Assays (CTNNB1, FAM probe) (Hs00355045_m1, manufactured by Applied Biosystems, Inc.) for the human β-catenin gene and a human GAPDH gene probe as an internal standard (VIC probe, Hs99999905_m1, manufactured by Applied Biosystems, Inc.). 5 μL of TaqMan® Fast Advanced Master Mix, 2 μL of RNase-Free Water, 0.5 μL of each gene probe, and 2 μL of the prepared cDNA solution were added per well of a 384-well PCR plate (manufactured by Applied Biosystems, Inc.) to bring the total amount to 10 μL, which was then loaded in ViiA™ 7 Real-time PCR system (manufactured by Applied Biosystems, Inc.) and subjected to PCR under conditions given below. The real-time PCR was carried out at N=4 for the cDNA prepared from the lysate.
(§4) PCR initial activation: 95° C. for 20 seconds
(§5) PCR: 95° C. for 1 second • 62° C. for 20 seconds
(§6) This PCR cycle was repetitively performed 40 times.
(§7) The quantitative analysis was conducted by the ΔΔCt method.
On the technique in general: Quantitative PCR measures a nucleic acid by following its amplification.

The test system of data set [4] is human β-catenin gene. In words: Test Example 2: β-catenin gene expression inhibition in HepG2 cells, 3 days, real-time PCR. In kind it is cell-based. The conditions noted are these: for inhibitory activity against β-catenin gene expression (in words): compared with particle containing lipid of Reference Example 2; for IC50: nucleic acid lipid particle of Example 31 containing the named lipid, read-out: β-catenin gene expression inhibitory activity IC50. The protocol: as §1
The concentration of a human liver cancer HepG2 cell line (derived from human liver cancer) was adjusted to 50000 cells/mL in a DMEM medium (manufactured by Invitrogen Corp.) containing 10% fetal bovine serum (culture medium). Then, the resulting culture solution was inoculated at 100 μL/well to a 96-well flat-bottomed plate (manufactured by Corning Inc./Falcon) and cultured at 37° C. for 1 day under 5.0% CO2. The nucleic acid lipid particle-containing dispersion prepared in Example 31 was diluted with a culture medium to prepare dilution series having final double-stranded polynucleotide concentrations of 30, 3, 0.3, and 0.03 nM in the medium. Then, each dilution was added to the cells after removal of the culture supernatant, and the culture was further continued for 3 days. This operation was performed at N=3 for each concentration.
as §3, §4, §5, §6, §7

Data set [5] in a line: Rate of encapsulation of polynucleotide/mRNA (Quant-iT RiboGreen, with and without Triton X-100). Type of data set: physicochemical. On the procedure: The rate of encapsulation of the double-stranded polynucleotide was measured using Quant-iT RiboGreen RNA Assay kit (Invitrogen Corp.) according to the attached document.
Specifically, the double-stranded polynucleotide in the nucleic acid lipid particle dispersion was quantified in the presence and absence of a 0.015% Triton X-100 detergent, and the rate of encapsulation was calculated according to the following expression: {[Amount of the double-stranded polynucleotide in the presence of the detergent]−[Amount of the double-stranded polynucleotide in the absence of the detergent]}/[Amount of the double-stranded polynucleotide in the presence of the detergent]}×100(%) (3) Ratio of Double-Stranded Polynucleotide to Lipid
The rate of encapsulation of the mRNA was measured using Quant-iT RiboGreen RNA Assay kit (Invitrogen Corp.) according to the attached document.
Specifically, the mRNA in the nucleic acid lipid particle dispersion was quantified in the presence and absence of a 0.015% Triton X-100 detergent, and the rate of encapsulation was calculated according to the following expression: {[Amount of the mRNA in the presence of the detergent]−[Amount of the mRNA in the absence of the detergent]}/[Amount of the mRNA in the presence of the detergent]}×100(%) (3) Ratio of mRNA to Lipid

Data set [6] has as its system human β-catenin gene. In words: Test Example 8: β-catenin gene expression inhibition in SW480 cells, procedures of Test Example 3, 50-0.05 nM. Type of data set: cell-based. The conditions noted are these: for inhibitory activity against β-catenin gene expression (in words): compared with particle containing lipid of Reference Example 2; for IC50: procedures of Test Example 3, 50, 5, 0.5, 0.05 nM, particles of Example 55, read-out: β-catenin gene expression inhibitory activity IC50. On the procedure:
as §2, with “to 50000” for “to 50,000”, “in a” for “in an”, “lipid particle-containing” for “lipid particle”, “30, 3,” for “30, 3.0,”, “for 4 hours.” for “for 3 days.”
as §3, §7
By the same procedures as in Test Example 3, SW480 cells were treated with 50 nM, 5 nM, 0.5 nM, and 0.05 nM each of nucleic acid lipid particles each prepared using a novel lipid, and the strength of human β-catenin gene expression inhibitory activity was compared among these particles.

Setting [7] is: particles of Example 31, total lipids calculated from phospholipid amount and compositional ratio (Table 3).
The mark [8] stands for this setting: particles of Example 31, volume-average particle size ± deviation.
The mark [9] stands for this setting: particles of Example 31: DSPC:Chol:LP:PEG-C-DMA=20:48:30:2, CT-157/CT-169 double-stranded polynucleotide.
The mark [10] stands for this setting: Example 55: particles prepared as in Example 31.
Setting [11] is: Example 55: particles prepared as in Example 31, ± deviation.
Where [12] appears, read: Example 55: particles prepared as in Example 31 (β-catenin double-stranded polynucleotide).

SMILES strings stand for the structures.

For orientation: IC50 means the point on the concentration scale where inhibition reaches its midpoint. As for `CCCCC/C=C\C/C=C\CCCCCCCCC(CCCCCCCC/C=C\C/C=C\CCCCC)OC(=O)OCCCN(C)C` [Example 1, 3-(Dimethylamino)propyl(6Z,9Z,28Z,31Z)-heptatriaconta-6,9,28,31-tetraen-19-yl Carbonate], in data set [1] (setting [7]), the “Ratio of polynucleotide to lipid siRNA/lipid” value (from here on “Ratio … to lipid siRNA/lipid”) is given as 0.109 wt/wt. In data set [2] (setting [8]), this compound displayed an Average particle size of 183 ± 41 nm. Besides, in data set [3], the “inhibitory activity against β-catenin gene expression (in words)” value (shortened to “inhibitory activity”) is recorded as “strong inhibitory activity” and the half-maximal inhibitory concentration (IC50) amounted to 3.5 nM. Besides, in data set [4], the “inhibitory activity” value is “strong inhibitory activity” and the concentration for half-maximal inhibition (IC50) came to 0.38 nM. For the same compound, in data set [5] (setting [9]), the “Rate of polynucleotide encapsulation” value is reported as 94.3%.

In the case of `CCCCC/C=C\C/C=C\CCCCCCCC(CCCCCCC/C=C\C/C=C\CCCCC)OC(=O)OCCCN(C)C` [Example 2, 3-(Dimethylamino)propyl(6Z,9Z,26Z,29Z)-pentatriaconta-6,9,26,29-tetraen-18-yl Carbonate], in data set [1] (setting [7]), the “Ratio … to lipid siRNA/lipid” value is recorded as 0.099 wt/wt. In addition, the Average particle size in data set [2] (setting [8]) was 215 ± 70 nm. For the same compound, in data set [3], the “inhibitory activity” value is on record as “strong inhibitory activity” and the IC50 was found to be 6.8 nM. Besides, in data set [4], the “inhibitory activity” value is recorded as “strong inhibitory activity” and the 50% inhibitory concentration (IC50) came to 0.47 nM. The “Rate of polynucleotide encapsulation” value in data set [5] (setting [9]) is recorded as 96.3%.

For the compound `CCCCCC[C@H](C/C=C\CCCCCCCC(CCCCCCC/C=C\C[C@@H](CCCCCC)OC(=O)CC)OC(=O)OCCCN(C)C)OC(=O)CC` [Example 41, (7R,9Z,26Z,29R)-18-({[3-(Dimethylamino)propoxy]carbonyl}oxy)pentatriaconta-9,26-diene-7,29-diyl Dipropionate], in data set [1] (setting [10]), the “Ratio … to lipid siRNA/lipid” value stood at 0.101 wt/wt. In data set [2] (setting [11]), this compound showed an Average particle size of 158 ± 40 nm. For the same compound, in data set [6], the “inhibitory activity” value is recorded as “strong inhibitory activity” and the IC50 is 2.6 nM. Moreover, the “Rate of polynucleotide encapsulation” value in data set [5] (setting [12]) came to 97%.

With `CCCCCC[C@H](C/C=C\CCCCCCCCC(CCCCCCCC/C=C\C[C@@H](CCCCCC)OC(C)=O)OC(=O)OCCCN(C)C)OC(C)=O` [Example 42, (7R,9Z,28Z,31R)-19-({[3-(Dimethylamino)propoxy]carbonyl}oxy)heptatriaconta-9,28-diene-7,31-diyl Diacetate], the “Ratio … to lipid siRNA/lipid” value in data set [1] (setting [10]) was found to be 0.077 wt/wt. Besides, the Average particle size in data set [2] (setting [11]) is listed as 188 ± 45 nm. Besides, in data set [6], the “inhibitory activity” value is listed as “strong inhibitory activity” and the half-inhibitory concentration (IC50) is 6 nM. The “Rate of polynucleotide encapsulation” value in data set [5] (setting [12]) stood at 97%.

Consider `CCCCCCCCCCCCC(CCCCCCC/C=C\C[C@@H](CCCCCC)OC(C)=O)OC(=O)OCCCN(C)C` (stereo partly drawn) [Example 43, (7R,9Z)-18-({[3-(Dimethylamino)propoxy]carbonyl}oxy)triacont-9-en-7-yl Acetate], for which the “Ratio … to lipid siRNA/lipid” value in data set [1] (setting [10]) came to 0.075 wt/wt. In addition, the Average particle size in data set [2] (setting [11]) was found to be 174 ± 31 nm. In data set [6], the “inhibitory activity” value is “strong inhibitory activity” and the concentration for half-maximal inhibition (IC50) is 24 nM. The “Rate of polynucleotide encapsulation” value in data set [5] (setting [12]) is listed as 97%.

The values are drawn from patent US10731159B2, “Cationic lipid” (DAIICHI SANKYO COMPANY, LIMITED, priority 2013, dated 2020).
